Test results published in ChEMBL document CHEMBL1158210, “New Destruxins from the Entomopathogenic Fungus Aschersonia sp” (1996).
Converted amounts (≈) assume the structure as drawn. The source made the active and inactive calls. No cut-off for these calls is given here. Starred links: 1 amine or outer side, 2 acyl side, 3 side chain; linkers in the order of their positions; H or OH if unused. Non-standard residues stand in square brackets, D forms with d. Residues, ends and D or L forms follow the SMILES beside them. NMeI = CC[C@H](C)[C@H](NC)C(=O)O; X1 = C=CC[C@H](O[*:1])C(=O)[*:2]; Hica(2S) = CC(C)C[C@H](O)C(=O)O; NMeA = CN[C@@H](C)C(=O)O; βAla = NCCC(=O)O

Tests used:
Drosophila melanogaster [1] = assay: Insecticidal activity against Drosophila melanogaster assessed as mortality at 200 ug/ml after 40 hrs; assay type: functional, organism-based
Drosophila melanogaster [2] = assay: Insecticidal activity against Drosophila melanogaster after 40 hrs; assay type: functional
Drosophila melanogaster [3] = assay: Insecticidal activity against Drosophila melanogaster assessed as mortality at 400 ug/ml after 48 hrs; assay type: functional, organism-based

C=CCC1OC(=O)CCNC(=O)[C@H](C)N(C)C(=O)[C@H]([C@@H](C)CC)N(C)C(=O)[C@H]([C@@H](C)CC)NC(=O)[C@@H]2C(C)CCN2C1=O (stereo not given in full) [DESTRUXIN A5]
Activity (Drosophila melanogaster [1]): Active
LC50 (Drosophila melanogaster [2]): 52 µg/mL (≈ 85.8 µM)

C=CC[C@@H]1OC(=O)CCNC(=O)[C@H](C)N(C)C(=O)[C@H]([C@@H](C)CC)N(C)C(=O)[C@H]([C@@H](C)CC)NC(=O)[C@@H]2CCCN2C1=O [destruxin A4] (cyclo(I[NMeI][NMeA][βAla][X1]P))
Activity (Drosophila melanogaster [1]): Active
LC50 (Drosophila melanogaster [2]): 41 µg/mL (≈ 69.3 µM)

CC[C@H](C)[C@@H]1NC(=O)[C@@H]2CCCN2C(=O)[C@H](CC(C)C)OC(=O)CCNC(=O)[C@H](C)N(C)C(=O)[C@H]([C@@H](C)CC)N(C)C1=O (cyclo(I[NMeI][NMeA][βAla][Hica(2S)]P))
Activity (Drosophila melanogaster [3]): inactive
